# Reference: the supplement of paper PMC10307832
# Legend:
# Test in all cases: relative viability (nuclei count vs DMSO), 5 days (fraction); higher = more cells survive
# LCLC-103H = test system: LCLC-103H
# Outline: (§1)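 Nuclei were stained with Hoechst during a one-step fixation (final 0.05% Triton X-100, 1% formaldehyde, 1 ug/ml Hoechst) carried out 5 days after dosing, then counted on 4× images. The cells, lung cancer lines in 1536-well plates, had been dosed by pin tool the day after seeding with one drug alone or a fixed anchor-drug dose plus five library-drug doses (not always all listed) in √10 steps. Relative viability is the nuclei count in treated wells divided by that in vehicle wells, and each value is the median of duplicate plates.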
# NCI-H1993 = test system: NCI-H1993
# Outline: as §1
# RERF-LC-KJ = test system: RERF-LC-KJ
# Outline: as §1
# NCI-H1651 = test system: NCI-H1651
# Outline: as §1
# HOP-62 = test system: HOP-62
# Outline: as §1
# COR-L 105 = test system: COR-L 105
# Outline: as §1
# COR-L23 = test system: COR-L23
# Outline: as §1
# NCI-H647 = test system: NCI-H647
# Outline: as §1
# SK-MES-1 = test system: SK-MES-1
# Outline: as §1
# NCI-H1395 = test system: NCI-H1395
# Outline: as §1
# NCI-H2085 = test system: NCI-H2085
# Outline: as §1
# NCI-H3122 = test system: NCI-H3122
# Outline: as §1
# NCI-H1975 = test system: NCI-H1975
# Outline: as §1
# PC-14 = test system: PC-14
# Outline: as §1
# NCI-H2087 = test system: NCI-H2087
# Outline: as §1
# LXF-289 = test system: LXF-289
# Outline: as §1
# NCI-H596 = test system: NCI-H596
# Outline: as §1
# EPLC-272H = test system: EPLC-272H
# Outline: as §1
# NCI-H2023 = test system: NCI-H2023
# Outline: as §1
# NCI-H2170 = test system: NCI-H2170
# Outline: as §1
# NCI-H650 = test system: NCI-H650
# Outline: as §1
# A-427 = test system: A-427
# Outline: as §1
# CAL-12T = test system: CAL-12T
# Outline: as §1
smiles,measurement,setting,value
O=C(O)CCCCC(CCSCc1ccccc1)SCc1ccccc1 (stereo not given) [CPI-613] + Nc1nc2[nH]cc(CCc3ccc(C(=O)N[C@@H](CCC(=O)O)C(=O)O)cc3)c2c(=O)[nH]1 [Pemetrexed] (partner 0.2 µM),relative viability,LCLC-103H; first compound 5 µM,0.514
same,relative viability,LCLC-103H; first compound 15.81 µM,0.462
same,relative viability,LCLC-103H; first compound 50 µM,0.414
same,relative viability,LCLC-103H; first compound 158.11 µM,0.452
same,relative viability,LCLC-103H; first compound 500 µM,0.272
same,relative viability,NCI-H1993; first compound 5 µM,0.601
same,relative viability,NCI-H1993; first compound 15.81 µM,0.522
same,relative viability,NCI-H1993; first compound 50 µM,0.537
same,relative viability,NCI-H1993; first compound 158.11 µM,0.378
same,relative viability,NCI-H1993; first compound 500 µM,0.278
same,relative viability,RERF-LC-KJ; first compound 5 µM,0.476
same,relative viability,RERF-LC-KJ; first compound 15.81 µM,0.47
same,relative viability,RERF-LC-KJ; first compound 50 µM,0.461
same,relative viability,RERF-LC-KJ; first compound 158.11 µM,0.341
same,relative viability,RERF-LC-KJ; first compound 500 µM,0.312
same,relative viability,NCI-H1651; first compound 5 µM,0.591
same,relative viability,NCI-H1651; first compound 15.81 µM,0.588
same,relative viability,NCI-H1651; first compound 50 µM,0.579
same,relative viability,NCI-H1651; first compound 158.11 µM,0.519
same,relative viability,NCI-H1651; first compound 500 µM,0.579
same,relative viability,HOP-62; first compound 5 µM,0.321
same,relative viability,HOP-62; first compound 15.81 µM,0.309
same,relative viability,HOP-62; first compound 50 µM,0.272
same,relative viability,HOP-62; first compound 158.11 µM,0.163
same,relative viability,HOP-62; first compound 500 µM,0.12
same,relative viability,COR-L 105; first compound 5 µM,1.01
same,relative viability,COR-L 105; first compound 15.81 µM,1.02
same,relative viability,COR-L 105; first compound 50 µM,1.15
same,relative viability,COR-L 105; first compound 158.11 µM,0.392
same,relative viability,COR-L 105; first compound 500 µM,0.229
same,relative viability,COR-L23; first compound 5 µM,0.216
same,relative viability,COR-L23; first compound 15.81 µM,0.197
same,relative viability,COR-L23; first compound 50 µM,0.192
same,relative viability,COR-L23; first compound 158.11 µM,0.2
same,relative viability,COR-L23; first compound 500 µM,0.013
same,relative viability,NCI-H647; first compound 5 µM,0.157
same,relative viability,NCI-H647; first compound 15.81 µM,0.158
same,relative viability,NCI-H647; first compound 50 µM,0.113
same,relative viability,NCI-H647; first compound 158.11 µM,0.0906
same,relative viability,NCI-H647; first compound 500 µM,0.0167
same,relative viability,SK-MES-1; first compound 5 µM,0.975
same,relative viability,SK-MES-1; first compound 15.81 µM,0.807
same,relative viability,SK-MES-1; first compound 50 µM,0.737
same,relative viability,SK-MES-1; first compound 158.11 µM,0.17
same,relative viability,SK-MES-1; first compound 500 µM,0.104
same,relative viability,NCI-H1395; first compound 5 µM,0.942
same,relative viability,NCI-H1395; first compound 15.81 µM,0.671
same,relative viability,NCI-H1395; first compound 50 µM,0.868
same,relative viability,NCI-H1395; first compound 158.11 µM,0.723
same,relative viability,NCI-H1395; first compound 500 µM,0.598
same,relative viability,NCI-H2085; first compound 5 µM,0.827
same,relative viability,NCI-H2085; first compound 15.81 µM,0.672
same,relative viability,NCI-H2085; first compound 50 µM,0.82
same,relative viability,NCI-H2085; first compound 158.11 µM,0.492
same,relative viability,NCI-H2085; first compound 500 µM,0.18
same,relative viability,NCI-H3122; first compound 5 µM,0.19
same,relative viability,NCI-H3122; first compound 15.81 µM,0.194
same,relative viability,NCI-H3122; first compound 50 µM,0.181
same,relative viability,NCI-H3122; first compound 158.11 µM,0.181
same,relative viability,NCI-H3122; first compound 500 µM,0.153
same,relative viability,NCI-H1975; first compound 5 µM,0.267
same,relative viability,NCI-H1975; first compound 15.81 µM,0.293
same,relative viability,NCI-H1975; first compound 50 µM,0.286
same,relative viability,NCI-H1975; first compound 158.11 µM,0.142
same,relative viability,NCI-H1975; first compound 500 µM,0.0754
same,relative viability,PC-14; first compound 5 µM,0.133
same,relative viability,PC-14; first compound 15.81 µM,0.13
same,relative viability,PC-14; first compound 50 µM,0.122
same,relative viability,PC-14; first compound 158.11 µM,0.121
same,relative viability,PC-14; first compound 500 µM,0.0065
same,relative viability,NCI-H2087; first compound 5 µM,0.642
same,relative viability,NCI-H2087; first compound 15.81 µM,0.662
same,relative viability,NCI-H2087; first compound 50 µM,0.689
same,relative viability,NCI-H2087; first compound 158.11 µM,0.574
same,relative viability,NCI-H2087; first compound 500 µM,0.007
same,relative viability,LXF-289; first compound 5 µM,0.903
same,relative viability,LXF-289; first compound 15.81 µM,0.828
same,relative viability,LXF-289; first compound 50 µM,0.851
same,relative viability,LXF-289; first compound 158.11 µM,0.757
same,relative viability,LXF-289; first compound 500 µM,0.568
same,relative viability,NCI-H596; first compound 5 µM,0.538
same,relative viability,NCI-H596; first compound 15.81 µM,0.48
same,relative viability,NCI-H596; first compound 50 µM,0.519
same,relative viability,NCI-H596; first compound 158.11 µM,0.352
same,relative viability,NCI-H596; first compound 500 µM,0.0295
same,relative viability,EPLC-272H; first compound 5 µM,0.324
same,relative viability,EPLC-272H; first compound 15.81 µM,0.289
same,relative viability,EPLC-272H; first compound 50 µM,0.318
same,relative viability,EPLC-272H; first compound 158.11 µM,0.206
same,relative viability,EPLC-272H; first compound 500 µM,0.05
same,relative viability,NCI-H2023; first compound 5 µM,0.233
same,relative viability,NCI-H2023; first compound 15.81 µM,0.2
same,relative viability,NCI-H2023; first compound 50 µM,0.175
same,relative viability,NCI-H2023; first compound 158.11 µM,0.0911
same,relative viability,NCI-H2023; first compound 500 µM,0.0103
same,relative viability,NCI-H2170; first compound 5 µM,0.278
same,relative viability,NCI-H2170; first compound 15.81 µM,0.251
same,relative viability,NCI-H2170; first compound 50 µM,0.244
same,relative viability,NCI-H2170; first compound 158.11 µM,0.26
same,relative viability,NCI-H2170; first compound 500 µM,0.227
same,relative viability,NCI-H650; first compound 5 µM,1.01
same,relative viability,NCI-H650; first compound 15.81 µM,0.821
same,relative viability,NCI-H650; first compound 50 µM,0.897
same,relative viability,NCI-H650; first compound 158.11 µM,0.641
same,relative viability,NCI-H650; first compound 500 µM,0.826
same,relative viability,A-427; first compound 5 µM,1.04
same,relative viability,A-427; first compound 15.81 µM,0.84
same,relative viability,A-427; first compound 50 µM,0.928
same,relative viability,A-427; first compound 158.11 µM,0.857
same,relative viability,A-427; first compound 500 µM,0.444
same,relative viability,CAL-12T; first compound 5 µM,1.02
same,relative viability,CAL-12T; first compound 15.81 µM,1.03
same,relative viability,CAL-12T; first compound 50 µM,1.02
same,relative viability,CAL-12T; first compound 158.11 µM,0.0985
same,relative viability,CAL-12T; first compound 500 µM,0.0501
